The text below walks through data of article PMC8092340 (Oncotarget, 2021).

A short description of series [1]: Cytotoxicity in the absence of DSB ligands (CT), Hoechst cell count. Type of series: cell-based, human. The note with it: human, EJ-DR U2OS cells, no DSB ligands.
Experimental: (§3) In addition to quantifying HR and alt-NHEJ activities, cytotoxicity in the absence of DSB ligands (CT) was also evaluated by quantifying the number of Hoeschst 33342-stained cells, allowing us to better understand the margin between on-target and presumable off-target, DNA repair-independent effects. IC50 values of HR inhibition, alt-NHEJ inhibition, and CT were used to calculate the “selectivity index” (SI) (defined as the ratio of CT IC50/alt-NHEJ IC50) and alt-NHEJ selectivity defined as HR IC50/alt-NHEJ IC50. […] (Figure 1E).
(§4) The EJ-DR cell line was cultured in high glucose Dulbecco’s modified Eagle’s medium (DMEM; Thermo Fisher Scientific) with L-glutamine containing 10% tetracycline-free (tet-free) fetal bovine serum (FBS; Takara Bio Inc. and Atlanta Biologics) and 1% Penicillin Streptomycin (Thermo Fisher Scientific). […] All cells were maintained at 37°C with 5% CO2.
(§5) The EJ-DR cells were plated in 384-well imaging plates at 2500 cells/well. 24 hours later, the DSB ligands, Triamcinolone Acetonide (TA; Sigma-Aldrich Co., LLC) and Shield-1 (Takara Bio Inc.), responsible for inducing the DSBs, were added for a final concentration of 100 nM TA and 1 μM Shield-1. Test compounds were also added at the same time using Echo 550 Acoustic Dispenser (Labcyte). A separate plate was seeded to test for cytotoxicity of the test compounds in the absence of the DSB ligands. […] The DSB ligands were washed out 24 hours after addition. 96 hours after addition of the ligands and test compounds, the media was washed off and cells were incubated with Hoechst nuclear stain in Live Cell Imaging Solution (Thermo Fisher Scientific). Plates were rinsed and prepared for immediate live cell imaging using GE IN Cell 2200 (Cytiva Life Sciences). Images were analyzed using InCell Analyzer software (Cytiva Life Sciences). Nuclei were segmented based on the Hoechst staining, and the intensity of the GFP and RFP signals in control populations were measured and binned into histograms to determine signal intensity threshold. The GFP and RFP intensity of all wells was then analyzed, and the percent of positive cells with GFP and RFP intensity above the threshold was calculated to determine the induction of signal. The DAPI cell counts were used to determine the relative cytotoxicity of test compounds in the absence of induced DNA damage.
A further series concerns alt-NHEJ. Briefly: EJ-DR 384-well imaging assay, alt-NHEJ (RFP) readout. To be noted: for IC50: Homo sapiens; for selectivity index SI (CT IC50/alt-NHEJ IC50) / Selectivity Index (HR IC50/alt-NHEJ IC50): ratio; for Selectivity Index (HR IC50/alt-NHEJ IC50): Supplementary Table 2.
For another series, the target named is T1, L type Cav 1.2 (Homo sapiens, UniProt Q13936).
T1 construct: host or cells: CHO
Briefly: Calcium channel blocking study, L-type. Type of series: cell-based. To be noted: CHO cells stably expressing the channel.

A further series has as its target T2, T type Cav 3.1 (Homo sapiens, UniProt O43497).
T2 construct: host or cells: HEK293
Briefly: Calcium channel blocking study, T-type Cav3.1. Type of series: cell-based. The note with it: HEK293 cells stably expressing the channel.

In another series the target is T3, T type Cav 3.2 (Homo sapiens, UniProt O95180).
T3 construct: host or cells: HEK293
Briefly: Calcium channel blocking study, T-type Cav3.2. The class given is cell-based. The note with it: HEK293 cells stably expressing the channel.

The next series concerns the target T4, T type Cav 3.3 (Homo sapiens, UniProt Q9P0X4).
T4 construct: host or cells: HEK293
In words: Calcium channel blocking study, T-type Cav3.3. The class given is cell-based. To be noted: HEK293 cells stably expressing the channel.

The target in the next series is T5, Human hERG (Kv11.1) (Homo sapiens, UniProt Q12809).
T5 construct: host or cells: CHO-K1
In words: Automated hERG inhibition patch clamp assay. Type of series: cell-based. To be noted: for IC50: patch clamp, CHO-K1 cells; for SIhERG (hERG IC50/alt-NHEJ IC50), called fold reduction in hERG potency: ratio. As to the method: Automated whole cell voltage clamp hERG inhibition assays were performed in Human hERG (Kv11.1) expressed in CHO-K1 cells optimized for automated patch clamp studies by Sophion Bioscience A/S [47].

The nature of series [2]: In vivo pharmacokinetic study, plasma. As for the experimental part:
(§1) These measurements were used to calculate various pharmacokinetic parameters critical to bioavailability including time to reach maximum concentration (tmax), maximum concentration achieved (Cmax), and half-life (t1/2) (Figure 5C, 5D, Supplementary Table 1).
(§2) Compound concentrations were measured at these time-points using Liquid Chromatography with tandem mass spectrometry (LC-MS-MS). Pharmacokinetic studies were performed by orally dosing test compounds at 30 mg/kg dissolved in 50% PEG400 and 50% water in female athymic nude mice. Plasma and brain tissue concentration were measured using mass spectrometry (MS).

Series [3] can be described thus: In vivo pharmacokinetic study, brain tissue. To be noted: oral 30 mg/kg, female athymic nude mice. As to the method: as §1, §2
Another series deals with HR. Briefly: EJ-DR 384-well imaging assay, HR (GFP) readout. To be noted: Homo sapiens, read-out: HR IC50.
The next series relates to EJ-DR U2OS cells. In words: Cytotoxicity in the absence of DSB ligands (CT), Hoechst cell count. Type of series: cell-based, human. The note with it: Homo sapiens, U2OS; Supplementary Table 2, mean ± SEM of four technical replicates.
[4] abbreviates: figures, read-out: CT IC50 (cytotoxicity).
Where [5] appears, read: oral 30 mg/kg, female athymic nude mice.

Where two headings read alike, the source gives them in different places.

T5 sequence (Q12809 whole entry): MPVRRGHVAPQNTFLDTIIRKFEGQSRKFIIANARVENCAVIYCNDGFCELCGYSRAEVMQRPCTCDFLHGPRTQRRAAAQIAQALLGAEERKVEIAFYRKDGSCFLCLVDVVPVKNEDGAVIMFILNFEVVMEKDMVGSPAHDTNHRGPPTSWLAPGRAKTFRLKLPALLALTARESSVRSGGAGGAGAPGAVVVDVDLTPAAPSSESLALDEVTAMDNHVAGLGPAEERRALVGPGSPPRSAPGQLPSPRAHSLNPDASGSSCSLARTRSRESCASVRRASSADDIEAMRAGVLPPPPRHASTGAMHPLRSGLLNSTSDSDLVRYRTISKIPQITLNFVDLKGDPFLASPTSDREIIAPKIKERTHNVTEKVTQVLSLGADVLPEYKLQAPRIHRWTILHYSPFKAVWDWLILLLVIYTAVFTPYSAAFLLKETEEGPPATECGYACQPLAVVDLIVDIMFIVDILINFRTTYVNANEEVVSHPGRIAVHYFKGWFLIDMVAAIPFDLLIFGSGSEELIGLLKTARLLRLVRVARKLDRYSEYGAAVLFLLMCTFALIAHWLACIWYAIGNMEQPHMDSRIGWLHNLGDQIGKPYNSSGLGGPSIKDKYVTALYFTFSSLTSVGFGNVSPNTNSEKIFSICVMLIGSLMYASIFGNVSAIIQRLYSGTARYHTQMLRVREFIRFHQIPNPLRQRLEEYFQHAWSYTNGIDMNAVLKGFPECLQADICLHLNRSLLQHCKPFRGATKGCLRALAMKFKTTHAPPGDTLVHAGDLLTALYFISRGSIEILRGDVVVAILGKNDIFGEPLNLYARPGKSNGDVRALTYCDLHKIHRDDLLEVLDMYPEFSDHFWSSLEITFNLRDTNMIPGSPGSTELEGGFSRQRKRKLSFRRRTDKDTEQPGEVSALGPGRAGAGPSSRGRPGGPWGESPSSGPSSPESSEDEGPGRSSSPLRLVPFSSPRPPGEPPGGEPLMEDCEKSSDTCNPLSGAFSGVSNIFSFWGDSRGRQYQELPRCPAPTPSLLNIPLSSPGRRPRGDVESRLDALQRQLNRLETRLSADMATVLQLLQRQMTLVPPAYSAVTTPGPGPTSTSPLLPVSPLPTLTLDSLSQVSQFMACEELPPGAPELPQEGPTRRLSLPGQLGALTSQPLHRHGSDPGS
T4 sequence (Q9P0X4 whole entry): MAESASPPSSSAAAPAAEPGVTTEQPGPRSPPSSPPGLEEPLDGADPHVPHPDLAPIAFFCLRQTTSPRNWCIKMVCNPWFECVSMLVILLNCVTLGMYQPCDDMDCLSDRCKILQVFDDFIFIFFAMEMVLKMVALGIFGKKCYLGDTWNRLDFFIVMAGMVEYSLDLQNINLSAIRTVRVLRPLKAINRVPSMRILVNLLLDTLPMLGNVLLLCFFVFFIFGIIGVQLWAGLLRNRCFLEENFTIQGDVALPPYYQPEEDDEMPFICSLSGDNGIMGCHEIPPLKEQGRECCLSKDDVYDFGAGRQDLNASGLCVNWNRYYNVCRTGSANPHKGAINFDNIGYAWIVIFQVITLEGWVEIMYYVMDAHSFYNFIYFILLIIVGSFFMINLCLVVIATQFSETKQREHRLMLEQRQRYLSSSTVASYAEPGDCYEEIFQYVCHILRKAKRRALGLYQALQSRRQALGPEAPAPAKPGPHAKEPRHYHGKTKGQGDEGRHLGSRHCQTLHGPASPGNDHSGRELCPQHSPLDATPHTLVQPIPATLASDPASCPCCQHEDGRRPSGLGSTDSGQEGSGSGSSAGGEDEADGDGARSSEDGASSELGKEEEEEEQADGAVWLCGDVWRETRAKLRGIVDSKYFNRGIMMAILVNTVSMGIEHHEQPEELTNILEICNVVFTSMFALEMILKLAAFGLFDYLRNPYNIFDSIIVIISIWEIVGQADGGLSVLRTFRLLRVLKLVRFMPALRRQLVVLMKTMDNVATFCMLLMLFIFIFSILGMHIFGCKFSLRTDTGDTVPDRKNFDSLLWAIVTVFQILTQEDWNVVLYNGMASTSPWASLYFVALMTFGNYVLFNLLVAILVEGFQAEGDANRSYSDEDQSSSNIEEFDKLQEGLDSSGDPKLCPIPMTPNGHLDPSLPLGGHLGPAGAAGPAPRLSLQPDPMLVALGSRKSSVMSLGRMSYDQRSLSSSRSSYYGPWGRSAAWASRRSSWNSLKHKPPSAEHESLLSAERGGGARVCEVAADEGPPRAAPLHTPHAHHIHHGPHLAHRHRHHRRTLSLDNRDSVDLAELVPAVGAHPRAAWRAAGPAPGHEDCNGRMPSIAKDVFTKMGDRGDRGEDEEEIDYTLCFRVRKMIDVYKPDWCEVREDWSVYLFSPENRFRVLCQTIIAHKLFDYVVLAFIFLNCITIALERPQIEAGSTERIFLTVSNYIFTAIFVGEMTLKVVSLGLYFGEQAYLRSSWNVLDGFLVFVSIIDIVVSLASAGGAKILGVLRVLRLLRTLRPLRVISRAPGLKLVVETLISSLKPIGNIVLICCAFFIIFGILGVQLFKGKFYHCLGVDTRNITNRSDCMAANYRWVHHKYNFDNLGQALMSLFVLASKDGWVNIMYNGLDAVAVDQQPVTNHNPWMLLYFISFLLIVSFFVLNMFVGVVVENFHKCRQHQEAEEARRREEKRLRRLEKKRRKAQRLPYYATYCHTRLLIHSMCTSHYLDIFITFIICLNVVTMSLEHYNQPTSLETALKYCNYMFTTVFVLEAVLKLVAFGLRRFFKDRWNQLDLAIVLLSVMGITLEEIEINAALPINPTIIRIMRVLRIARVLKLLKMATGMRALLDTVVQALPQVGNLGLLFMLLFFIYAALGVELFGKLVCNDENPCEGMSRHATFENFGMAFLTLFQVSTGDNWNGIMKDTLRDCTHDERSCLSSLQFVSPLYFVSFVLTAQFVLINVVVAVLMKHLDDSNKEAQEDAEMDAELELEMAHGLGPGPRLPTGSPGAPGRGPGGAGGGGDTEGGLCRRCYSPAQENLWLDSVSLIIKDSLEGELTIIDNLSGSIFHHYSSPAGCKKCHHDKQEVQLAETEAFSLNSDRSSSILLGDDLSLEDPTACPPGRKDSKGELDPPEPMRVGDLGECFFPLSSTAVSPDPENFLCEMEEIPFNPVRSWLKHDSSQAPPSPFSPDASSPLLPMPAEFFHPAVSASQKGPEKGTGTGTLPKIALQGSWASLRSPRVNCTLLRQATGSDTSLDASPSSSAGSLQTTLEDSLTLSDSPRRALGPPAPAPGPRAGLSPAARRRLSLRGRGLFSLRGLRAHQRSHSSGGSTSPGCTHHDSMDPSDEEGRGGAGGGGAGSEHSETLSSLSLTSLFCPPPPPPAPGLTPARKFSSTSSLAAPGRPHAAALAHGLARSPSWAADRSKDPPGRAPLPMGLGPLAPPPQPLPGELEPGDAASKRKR
Experimental for EJ-DR U2OS cells: as §3, §4, §5
Text for HR: (§6) The EJ-DR system was made in the U2OS cell line, which provides a simultaneous read-out of alt-NHEJ and HR activity in cells in response to induced DSBs. The cell line consists of a repair template and a reporter vector. When both these elements are chromosomally integrated, cleavage of a restriction enzyme site in the repair template, induced by ligand addition, causes a DSB. Depending on which DSB repair pathway is utilized, cells either express GFP if HR is used to repair the break site using the downstream homology template near the restriction enzyme site, or RFP if alt-NHEJ is involved in ligation of the cut ends.
(§7) An overview of the workflow of this assay is presented in Figure 1A, which starts with the addition of the test compounds and DSB ligands, followed by a media wash 24 hours later to terminate DSB induction, and then live cell imaging 96 hours later. After live cell imaging, we quantify the individual intensities of GFP and RFP signal in cells using the IN Cell imager. We then use the intensity measurements of individual cells in each channel and plot these intensities as a histogram to threshold out baseline levels of GFP and RFP intensity in the absence of ligands (Figure 1B and 1C). After applying the threshold, the percent of GFP and RFP-positive cells is calculated as a readout of induction of HR and alt-NHEJ activity, respectively.
(§8) In addition to quantifying HR and alt-NHEJ activities, cytotoxicity in the absence of DSB ligands (CT) was also evaluated by quantifying the number of Hoeschst 33342-stained cells, allowing us to better understand the margin between on-target and presumable off-target, DNA repair-independent effects. IC50 values of HR inhibition, alt-NHEJ inhibition, and CT were used to calculate the “selectivity index” (SI) (defined as the ratio of CT IC50/alt-NHEJ IC50) and alt-NHEJ selectivity defined as HR IC50/alt-NHEJ IC50.
(§9) The EJ-DR cell line was created in the U2OS cells (a human osteosarcoma cell line), and contained a stably integrated EJ-RFP plasmid to measure alt-NHEJ repair and a DR-GFP plasmid to measure HR repair, and has been previously described [9]. The EJ-DR cell line was cultured in high glucose Dulbecco’s modified Eagle’s medium (DMEM; Thermo Fisher Scientific) with L-glutamine containing 10% tetracycline-free (tet-free) fetal bovine serum (FBS; Takara Bio Inc. and Atlanta Biologics) and 1% Penicillin Streptomycin (Thermo Fisher Scientific). Tet-free FBS was used to prevent any expression of the tetracycline-inducible EJ-RFP system from residual tetracycline found in most commercially available FBS. All cells were maintained at 37°C with 5% CO2.
(§10) The EJ-DR cells were plated in 384-well imaging plates at 2500 cells/well. 24 hours later, the DSB ligands, Triamcinolone Acetonide (TA; Sigma-Aldrich Co., LLC) and Shield-1 (Takara Bio Inc.), responsible for inducing the DSBs, were added for a final concentration of 100 nM TA and 1 μM Shield-1. Test compounds were also added at the same time using Echo 550 Acoustic Dispenser (Labcyte). A separate plate was seeded to test for cytotoxicity of the test compounds in the absence of the DSB ligands. […] The DSB ligands were washed out 24 hours after addition. 96 hours after addition of the ligands and test compounds, the media was washed off and cells were incubated with Hoechst nuclear stain in Live Cell Imaging Solution (Thermo Fisher Scientific). Plates were rinsed and prepared for immediate live cell imaging using GE IN Cell 2200 (Cytiva Life Sciences).
Experimental for L type Cav 1.2: (§11) Calcium channel blocking studies were performed by Charles River Laboratories in Chinese Hamster Ovary (CHO) and HEK293 cell lines stably expressing L-Type and T-type calcium channels, respectively, under tetracycline induction in accordance with a previously published study [46]. Data acquisition and analysis was performed using the IonWorks Quattro™ or Barracuda system software (Molecular Devices Corporation).
Experimental for T type Cav 3.1: as §11
Experimental for T type Cav 3.2: as §11
Experimental for T type Cav 3.3: as §11
Text for alt-NHEJ: as §6, §7, §8, §9, §10

As for `CC(C)[C@H]1c2ccc(F)cc2CC[C@]1(O)CCN(C)CC(O)c1ccccc1` (stereo partly shown) [YU241553], the IC50 at 96 h in series [1] (setting [4]) worked out at 24 µM. Also, the IC50 in the series on alt-NHEJ (U2OS, read-out: alt-NHEJ IC50) amounted to 8.87 µM. The “selectivity index SI (CT IC50/alt-NHEJ IC50)” value in the series on alt-NHEJ was 2.71.

Turning to `O=c1cc(N2CCOCC2)oc2c(-c3cccc4c3sc3ccccc34)cccc12` [NU 4771], the “effect on alt-NHEJ and HR in the EJ-DR assay” value in the series on alt-NHEJ (EJ-DR U2OS cells) was “increase in both alt-NHEJ and HR”.

Take `CC(C)C1c2ccc(F)cc2CCC1(O)CCN1CC(Oc2ccc(Cl)cn2)CC1CO` (stereo not shown) [YU252377]: the IC50 at 96 h in series [1] (Table 1, read-out: Cytotoxicity IC50) is 14.8 µM. Further, the IC50 on L type Cav 1.2 is 6.3 µM; at T type Cav 3.1, 5.3 µM; on T type Cav 3.2, 5.6 µM; on T type Cav 3.3, 8.2 µM; against Human hERG (Kv11.1) it was 6.43 µM; in the series with HR it was above 60 µM. Besides, the IC50 came to 1.53 µM with alt-NHEJ (U2OS, read-out: alt-NHEJ IC50) and 1.5 µM in the series with alt-NHEJ (read-out: nc-EJ IC50). At Human hERG (Kv11.1), the “SIhERG (hERG IC50/alt-NHEJ IC50), called fold reduction in hERG potency” value turned out to be 4.20. In [2] (female, athymic nude, mouse, plasma, po, 30 mg/kg), the half-life is 1.81 h. Further, in series [2] (female, athymic nude, mouse, plasma, po, 30 mg/kg, Maximum concentration (Cmax), oral 30 mg/kg, female athymic nude mice, YU252222 given as methyl ester prodrug), the Cmax stood at 68.9 ng/mL. Moreover, the “% AUC Extrapolation” value in [2] (setting [5]) was 1.1%. In addition, in series [2] (setting [5]), the “AUC(0-x)/Dose” value turned out to be 5.83 ng·h/mL/mg/kg. Moreover, the Cmax/Dose in series [2] (setting [5]) turned out to be 2.30 ng/mL/mg/kg. Further, the “Time at which Cmax was observed (tmax)” value in series [2] (setting [5]) is 1.0 h. In addition, the “Area under concentration vs time curve (AUC) (0-x)” value in series [2] (oral 30 mg/kg, female athymic nude mice, YU252222 given as methyl ester prodrug) came out at 175 ng·h/mL. Further, the “Maximum concentration (Cmax)” value in series [2] (oral 30 mg/kg, female athymic nude mice, YU252222 given as methyl ester prodrug, 30 mg/kg) was below 100 ng/mL. The “brain exposure” value in series [3] is recorded as “did not achieve detectable brain exposure”.

As for `CC(C)C1c2ccccc2CCN1C(=O)CC1CCN(C(=O)OC(C)(C)C)CC1` (stereo not shown) [YU241542], the IC50 at 96 h in series [1] (setting [4]) was above 60 µM. In the series on alt-NHEJ (U2OS, read-out: alt-NHEJ IC50), the IC50 was 41.3 µM. Moreover, the “selectivity index SI (CT IC50/alt-NHEJ IC50)” value with alt-NHEJ was above 1.45.

For the compound `NC1(c2ccc(-c3nc4ccn5c(=O)[nH]nc5c4cc3-c3ccccc3)cc2)CCC1` [MK-2206], the IC50 with EJ-DR U2OS cells is 16.5 ± 2.56 µM; in the series with HR, 4.4 ± 5.17 µM; in the series with alt-NHEJ (read-out: alt-NHEJ IC50), 0.66 ± 0.31 µM. Moreover, the “Selectivity Index (HR IC50/alt-NHEJ IC50)” value in the series with alt-NHEJ was determined as 6.67.

Take `COC[C@@H]1C[C@@H](Oc2nccc3ccccc23)CN1CC[C@@]1(O)CCc2cc(F)ccc2[C@@H]1C(C)C` [YU252373]: at Human hERG (Kv11.1), it took 9.8 µM to reach half-maximal inhibition (IC50) and the “SIhERG (hERG IC50/alt-NHEJ IC50), called fold reduction in hERG potency” value stood at 5.76. In addition, the IC50 in the series with alt-NHEJ (U2OS, read-out: alt-NHEJ IC50) was found to be 1.7 µM.

Regarding `CO[C@H]1C[C@@H]2CC[C@@H](C)[C@@](O)(O2)C(=O)C(=O)N2CCCC[C@H]2C(=O)O[C@H]([C@H](C)C[C@@H]2CC[C@@H](OCCO)[C@H](OC)C2)CC(=O)[C@H](C)/C=C(\C)[C@@H](O)[C@@H](OC)C(=O)[C@H](C)C[C@H](C)/C=C/C=C/C=C/1C` [Everolimus], the figures for the concentration for half-maximal inhibition (IC50) in the series with EJ-DR U2OS cells, with HR and in the series with alt-NHEJ (read-out: alt-NHEJ IC50) were 3.17 ± 2.05 µM, 0.07 ± 0.03 µM and 0.05 ± 0.03 µM, respectively. Besides, the “Selectivity Index (HR IC50/alt-NHEJ IC50)” value with alt-NHEJ was 1.40.

As to `NC1(C(=O)N[C@@H](CCO)c2ccc(Cl)cc2)CCN(c2ncnc3[nH]ccc23)CC1` [AZD 5363], the IC50 was determined as 48.5 ± 73 µM in the series with EJ-DR U2OS cells, 31.6 ± 59.2 µM in the series on HR and 16.9 ± 26.5 µM with alt-NHEJ (read-out: alt-NHEJ IC50). For the same compound, the “Selectivity Index (HR IC50/alt-NHEJ IC50)” value in the series with alt-NHEJ was 1.87.

As for `COc1ccc(-c2ccc3c(N4CCOC[C@@H]4C)nc(N4CCOC[C@@H]4C)nc3n2)cc1CO` [AZD 8055], the results for the IC50 in the series with EJ-DR U2OS cells, in the series with HR and in the series with alt-NHEJ (read-out: alt-NHEJ IC50) were 0.89 ± 0.28 µM, 2.85 ± 1.04 µM and 0.05 ± 0.01 µM, respectively. Further, the “Selectivity Index (HR IC50/alt-NHEJ IC50)” value in the series with alt-NHEJ is 57.00.

Consider `CC(C)NC[C@@H](C(=O)N1CCN(c2ncnc3c2[C@H](C)C[C@H]3O)CC1)c1ccc(Cl)cc1` [GDC-0068], for which the IC50 with EJ-DR U2OS cells amounted to 41.5 ± 3.32 µM; with HR, 22.1 ± 1.84 µM; in the series on alt-NHEJ (read-out: alt-NHEJ IC50) it was 9.4 ± 1.78 µM. Also, the “Selectivity Index (HR IC50/alt-NHEJ IC50)” value in the series on alt-NHEJ is 2.35.
